Laboratory results as given in US11208412B2 (DAEGU-GYEONGBUK MEDICAL INNOVATION FOUNDATION, priority 2017, dated 2021).

Tests used:
Assay in all cases: Kinase selectivity, DiscoverX scanMAX Kinase assay panel (% control)
Type in all cases: binding
[1] = target: T1, kinases of the scanMAX Kinase assay panel (Homo sapiens, UniProt Q15835); settings: GRK1; 1 uM
T1 construct: purchased DiscoverX Co. (contract measurement) scanMAX Kinase assay panel
T1 sequence (Q15835 1-563): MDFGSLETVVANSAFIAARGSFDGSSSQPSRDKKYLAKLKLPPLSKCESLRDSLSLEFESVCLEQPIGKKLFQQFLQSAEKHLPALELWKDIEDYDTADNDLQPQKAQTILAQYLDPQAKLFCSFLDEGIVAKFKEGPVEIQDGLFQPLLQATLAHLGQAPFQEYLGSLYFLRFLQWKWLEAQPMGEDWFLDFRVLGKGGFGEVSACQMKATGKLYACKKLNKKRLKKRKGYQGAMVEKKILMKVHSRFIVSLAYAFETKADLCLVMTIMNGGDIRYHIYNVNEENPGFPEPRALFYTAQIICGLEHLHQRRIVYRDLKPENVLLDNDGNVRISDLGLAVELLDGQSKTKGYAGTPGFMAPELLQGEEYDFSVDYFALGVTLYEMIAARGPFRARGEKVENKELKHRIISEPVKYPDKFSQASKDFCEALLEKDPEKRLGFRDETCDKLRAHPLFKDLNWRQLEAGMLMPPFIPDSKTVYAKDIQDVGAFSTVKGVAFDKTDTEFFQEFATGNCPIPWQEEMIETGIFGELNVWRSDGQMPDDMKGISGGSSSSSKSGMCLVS
How it was run: (§1)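 Each enzyme is treated with drug at 1 uM in DMSO, then signal is scaled between a positive control (0%) and DMSO (100%) to give % control. Kinases with % control under 35% are scored as inhibited.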

[2] = target: T2, kinases of the scanMAX Kinase assay panel (Homo sapiens, UniProt P51955); settings: NEK2; 1 uM
T2 construct: purchased DiscoverX Co. (contract measurement) scanMAX Kinase assay panel
T2 sequence (P51955 1-445): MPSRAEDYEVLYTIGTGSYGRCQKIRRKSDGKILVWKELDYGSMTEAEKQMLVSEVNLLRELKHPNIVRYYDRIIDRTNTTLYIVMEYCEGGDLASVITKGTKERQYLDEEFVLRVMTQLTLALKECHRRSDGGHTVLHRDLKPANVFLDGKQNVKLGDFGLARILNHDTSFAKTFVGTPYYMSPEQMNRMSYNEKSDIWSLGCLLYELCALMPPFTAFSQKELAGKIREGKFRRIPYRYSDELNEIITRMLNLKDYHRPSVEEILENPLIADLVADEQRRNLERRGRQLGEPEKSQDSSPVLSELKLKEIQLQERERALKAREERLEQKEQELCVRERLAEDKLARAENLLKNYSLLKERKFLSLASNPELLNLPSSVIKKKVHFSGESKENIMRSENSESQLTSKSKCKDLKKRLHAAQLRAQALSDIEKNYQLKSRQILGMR
How it was run: as §1

[3] = target: T3, kinases of the scanMAX Kinase assay panel (Homo sapiens, UniProt Q8WTQ7); settings: GRK7; 1 uM
T3 construct: purchased DiscoverX Co. (contract measurement) scanMAX Kinase assay panel
T3 sequence (Q8WTQ7 1-553): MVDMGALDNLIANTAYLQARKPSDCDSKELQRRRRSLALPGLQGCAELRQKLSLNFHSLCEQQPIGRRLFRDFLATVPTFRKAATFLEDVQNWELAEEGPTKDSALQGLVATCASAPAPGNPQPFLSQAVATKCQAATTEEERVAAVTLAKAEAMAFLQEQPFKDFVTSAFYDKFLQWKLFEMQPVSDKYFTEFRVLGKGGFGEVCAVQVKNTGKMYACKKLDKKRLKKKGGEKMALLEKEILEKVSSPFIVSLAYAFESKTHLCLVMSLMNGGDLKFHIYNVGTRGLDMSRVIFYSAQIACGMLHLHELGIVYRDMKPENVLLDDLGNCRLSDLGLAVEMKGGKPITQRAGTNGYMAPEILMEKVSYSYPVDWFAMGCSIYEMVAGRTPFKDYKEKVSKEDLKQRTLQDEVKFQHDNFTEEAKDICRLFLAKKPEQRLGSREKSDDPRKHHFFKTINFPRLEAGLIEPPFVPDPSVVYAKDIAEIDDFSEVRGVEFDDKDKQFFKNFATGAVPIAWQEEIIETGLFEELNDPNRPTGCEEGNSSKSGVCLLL
How it was run: as §1

Row | SMILES | remaining binding at 1 µM [1] | remaining binding at 1 µM [2] | remaining binding at 1 µM [3]
1 | CNc1nc(Nc2ccc(C(=O)N3CCOCC3)cc2OC)nc2[nH]cc(C#N)c12 [Example 1, 2-((2-methoxy-4-(morpholine-4-carbonyl)phenyl)amino)-4-(methylamino)-7H-pyrrolo[2,3-d]pyrimidine-5-carbonitrile] | 72% | 97% | 71%
2 | CC1(Nc2nc(Nc3cnn([C@H]4CCN(C5COC5)C[C@@H]4F)c3Cl)nc3[nH]cc(C#N)c23)CC1 [Example 52, 2-((5-chloro-1-((3S,4S)-3-fluoro-1-(oxetane-3-yl)piperidine-4-yl)-1H-pyrazole-4-yl)amino)((1-methylcyclopropyl)amino)-7H-pyrrolo[2,3-d]pyrimidine-5-carbonitrile] | 36% | 70% | 65%
3 | CCNc1nc(Nc2ccc(C(=O)N3CCC(N4CCOCC4)CC3)cc2OC)nc2[nH]cc(C(F)(F)F)c12 [Example 104, (4-((4-(ethylamino)-5-(trifluoromethyl)-7H-pyrrolo[2,3-d]pyrimidine-2-yl)amino)-3-methoxyphenyl)(4-morpholinopiperidine-1-yl)methanone] | 67% | 74% | 78%
